# Assay results reported in patent US9695155B2, “Herbicidal substituted pyrimidinyloxy benzene compounds” (E. I. DU PONT DE NEMOURS AND COMPANY, priority 2013, dated 2017).
# Assays:
# soybean = test: Test C postemergence; assay type: in vivo, Glycine max
# Procedure, shortened: (§1)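 Sown in loam/sand → sprayed pre-emergence; or grown to 1–4 leaves in peat mix → sprayed post-emergence. Same solvent/surfactant formulation both ways. Greenhouse 13–15 d. Score 0–100 visual.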
# kochia = test: Test C postemergence; assay type: in vivo, Kochia scoparia; settings: for Plant response rating, Kochia / Kochia plant response rating: scale 0 to 100 (0 no effect, 100 complete control)
# Procedure, shortened: as §1
# corn [1] = test: Test C postemergence; assay type: in vivo, Zea mays; settings: for Plant response rating, Corn / Corn plant response rating: scale 0 to 100 (0 no effect, 100 complete control)
# Procedure, shortened: as §1
# johnsongrass = test: Test C postemergence; assay type: in vivo, Sorghum halepense; settings: for Plant response rating, Johnsongrass / Johnsongrass plant response rating: scale 0 to 100 (0 no effect, 100 complete control)
# Procedure, shortened: as §1
# pigweed [2] = test: Test A postemergence; assay type: in vivo, Amaranthus retroflexus
# Procedure, shortened: (§2)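 Scoring: eye-based comparison with untreated controls, 0 for no effect through 100 for complete control, at about day 10. Treatments: directed soil spray preemergence; foliar spray postemergence on 2–10 cm plants at the one- to two-leaf stage. Medium: loam soil with sand.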
# wild oat = test: Test C postemergence; assay type: in vivo, Avena fatua
# Procedure, shortened: as §1
# giant foxtail = test: Test C postemergence; assay type: in vivo, Setaria faberii; settings: for Plant response rating, Foxtail, Giant / Foxtail, Giant plant response rating: scale 0 to 100 (0 no effect, 100 complete control)
# Procedure, shortened: as §1
# waterhemp = test: Test C postemergence; assay type: in vivo, Amaranthus rudis
# Description: Seeds of plant species selected from blackgrass (Alopecurus myosuroides), Italian ryegrass (Lolium multiflorum), wheat, winter (winter wheat, Triticum aestivum), galium (catchweed bedstraw, Galium aparine), corn (Zea mays), large (Lg) crabgrass (Digitaria sanguinalis), giant foxtail (Setaria faberii), johnsongrass (Sorghum halepense), lambsquarters (Chenopodium album), morningglory (Ipomoea coccinea), yellow nutsedge (Cyperus esculentus), pigweed (Amaranthus retroflexus), ragweed (common ragweed, Ambrosia elatior), soybean (Glycine max), barnyardgrass (Echinochloa crus-galli), oilseed rape (Brassica napus), waterhemp (common waterhemp, Amaranthus rudis), kochia (Kochia scoparia), wild oat (Avena fatua), surinam grass (Brachiaria decumbens), foxtail, green (green foxtail, Setaria viridis), goosegrass (Eleusine indica), bromegrass, downy (downy bromegrass, Bromus tectorum), nightshade (eastern black nightshade, Solanum ptycanthum), cocklebur (common cocklebur, Xanthium strumarium), cupgrass, woolly (woolly cupgrass, Eriochloa villosa), bermudagrass (Cynodon dactylon), sunflower, (common oilseed sunflower, Helianthus annuus), Russian thistle (Salsola kali), and velvetleaf (Abutilon theophrasti) were planted into a blend of loam soil and sand and treated preemergence with test chemicals formulated in a non-phytotoxic solvent mixture which included a surfactant.
# At the same time, plants selected from these crop and weed species and also barley, winter (winter barley, Hordeum vulgare), windgrass (Apera spica-venti), chickweed (common chickweed, Stellaria media), deadnettle (henbit deadnettle, Lamium amplexicaule), and canarygrass (littleseed canarygrass, Phalaris minor) were planted in pots containing Redi-Earth® planting medium (Scotts Company, 14111 Scottslawn Road, Marysville, Ohio 43041) comprising spaghnum peat moss, vermiculite, wetting agent and starter nutrients and treated with postemergence applications of test chemicals formulated in the same manner. Plants ranged in height from 2 to 18 cm (1- to 4-leaf stage) for postemergence treatments. Treated plants and controls were maintained in a greenhouse for 13 to 15 days, after which time all species were compared to controls and visually evaluated. Plant response ratings, summarized in Table C, are based on a scale of 0 to 100 where 0 is no effect and 100 is complete control. A dash (-) response means no test result.
# corn [3] = test: Test A postemergence; assay type: in vivo, Zea mays
# Procedure, shortened: as §2
# barnyardgrass = test: Test C postemergence; assay type: in vivo, Echinochloa crus-galli; settings: for Plant response rating, Barnyardgrass / Barnyardgrass plant response rating: scale 0 to 100 (0 no effect, 100 complete control)
# Procedure, shortened: as §1
# Italian ryegrass = test: Test C postemergence; assay type: in vivo, Lolium multiflorum
# Procedure, shortened: as §1
# pigweed [4] = test: Test C postemergence; assay type: in vivo, Amaranthus retroflexus
# Procedure, shortened: as §1
# pigweed [5] = test: Test A preemergence; assay type: in vivo, Amaranthus retroflexus; settings: for Pigweed plant response rating: 500 g ai/ha
# Procedure, shortened: as §2
# [6] = 16 g ai/ha, postemergence, 0 is no effect, 100 is complete control
# [7] = 125 g ai/ha, postemergence, visual rating, scale 0 to 100 (0 no effect, 100 complete control)
# [8] = Postemergence, 62 g ai/ha, scale 0 to 100 (0 no effect, 100 complete control)
# [9] = 125 g ai/ha, postemergence, visual rating
# [10] = 31 g ai/ha, 0 to 100 scale, 0 no effect, 100 complete control
# [11] = 125 g ai/ha, 0 to 100 scale where 0 is no effect and 100 is complete control
# [12] = Postemergence, 31 g ai/ha, 13 to 15 days
# [13] = 31 g ai/ha, postemergence, visual rating, scale 0 to 100 (0 no effect, 100 complete control), 13 to 15 days
# [14] = Postemergence, 62 g ai/ha, scale 0 to 100 (0 no effect, 100 complete control), 13 to 15 days
# [15] = 31 g ai/ha, postemergence, visual rating, 13 to 15 days
# [16] = Postemergence, 62 g ai/ha, 13 to 15 days
# [17] = 125 g ai/ha, 0 to 100 scale, 0 no effect, 100 complete control
# [18] = 500 g ai/ha, 0 to 100 scale where 0 is no effect and 100 is complete control
# [19] = Postemergence, 31 g ai/ha, scale 0 to 100 (0 no effect, 100 complete control), 13 to 15 days
# [20] = 16 g ai/ha, postemergence, visual rating, 13 to 15 days
smiles,measurement,setting,value
N#Cc1cnn(-c2c(Br)cccc2Oc2ncc(Cl)cn2)c1 [Compound 140],"Plant response rating (0 to 100), Soybean",soybean; [6],25
same,"Plant response rating, Soybean",soybean; [7],75
same,"Plant response rating, Soybean",soybean; [8],65
same,"Plant response rating (0 to 100), Kochia",kochia; [6],70
same,"Plant response rating, Kochia",kochia; [9],90
same,"Plant response rating, Kochia","kochia; Postemergence, 62 g ai/ha",85
same,"Plant response rating (0 to 100), Corn",corn [1]; [6],0
same,"Plant response rating, Corn",corn [1]; [9],10
same,"Plant response rating, Corn","corn [1]; Postemergence, 62 g ai/ha",10
same,"Plant response rating (0 to 100), Johnsongrass",johnsongrass; [6],0
same,"Plant response rating, Johnsongrass",johnsongrass; [9],25
same,"Plant response rating, Johnsongrass","johnsongrass; Postemergence, 62 g ai/ha",5
same,"Plant response rating, Pigweed",pigweed [2]; [10],90
same,Pigweed plant response rating,pigweed [2]; [11],100
same,"Plant response rating (0 to 100), Oat, Wild",wild oat; [6],0
same,"Plant response rating, Oat, Wild",wild oat; [7],5
same,"Plant response rating, Oat, Wild",wild oat; [8],0
same,"Plant response rating (0 to 100), Foxtail, Giant",giant foxtail; [6],5
same,"Plant response rating, Foxtail, Giant",giant foxtail; [9],20
same,"Plant response rating, Foxtail, Giant","giant foxtail; Postemergence, 62 g ai/ha",20
same,"Plant response rating (0 to 100), Waterhemp",waterhemp; [6],75
same,"Plant response rating, Waterhemp",waterhemp; [7],85
same,"Plant response rating, Waterhemp",waterhemp; [8],80
same,"Plant response rating, Corn",corn [3]; [10],20
same,Corn plant response rating,corn [3]; [11],30
same,"Plant response rating (0 to 100), Barnyardgrass",barnyardgrass; [6],5
same,"Plant response rating, Barnyardgrass",barnyardgrass; [9],10
same,"Plant response rating, Barnyardgrass",barnyardgrass; [12],10
same,"Plant response rating, Barnyardgrass","barnyardgrass; Postemergence, 62 g ai/ha",10
same,"Plant response rating (0 to 100), Ryegrass, Italian",Italian ryegrass; [6],0
same,"Plant response rating, Ryegrass, Italian",Italian ryegrass; [7],0
same,"Plant response rating, Ryegrass, Italian",Italian ryegrass; [8],0
same,"Plant response rating (0 to 100), Pigweed",pigweed [4]; [6],85
same,"Plant response rating, Pigweed",pigweed [4]; [7],90
same,"Plant response rating, Pigweed",pigweed [4]; [8],90
same,"Plant response rating, Pigweed","pigweed [5]; 31 g ai/ha, 0 to 100 scale where 0 is no effect and 100 is complete control, visual, approximately 10 days",90
same,"Plant response rating, Pigweed",pigweed [5]; [11],100
N#Cc1cnn(-c2c(Oc3ncc(F)cn3)cccc2C(F)F)c1 [Compound 240],"Plant response rating (0 to 100), Soybean",soybean; [6],30
same,Soybean plant response rating,soybean; [13],40
same,"Plant response rating, Soybean",soybean; [7],75
same,"Plant response rating, Soybean",soybean; [14],60
same,"Plant response rating (0 to 100), Kochia",kochia; [6],40
same,Kochia plant response rating,kochia; [15],45
same,"Plant response rating, Kochia",kochia; [9],90
same,"Plant response rating, Kochia",kochia; [16],45
same,"Plant response rating (0 to 100), Corn",corn [1]; [6],0
same,Corn plant response rating,corn [1]; [15],5
same,"Plant response rating, Corn",corn [1]; [9],15
same,"Plant response rating, Corn",corn [1]; [16],5
same,"Plant response rating (0 to 100), Johnsongrass",johnsongrass; [6],10
same,Johnsongrass plant response rating,johnsongrass; [15],5
same,"Plant response rating, Johnsongrass",johnsongrass; [9],10
same,"Plant response rating, Johnsongrass",johnsongrass; [16],5
same,"Plant response rating, Pigweed",pigweed [2]; [17],100
same,"Plant response rating, Pigweed",pigweed [2]; [18],100
same,"Plant response rating (0 to 100), Oat, Wild",wild oat; [6],0
same,"Oat, Wild plant response rating",wild oat; [13],0
same,"Plant response rating, Oat, Wild",wild oat; [7],0
same,"Plant response rating, Oat, Wild",wild oat; [14],0
same,"Plant response rating (0 to 100), Foxtail, Giant",giant foxtail; [6],0
same,"Foxtail, Giant plant response rating",giant foxtail; [15],35
same,"Plant response rating, Foxtail, Giant",giant foxtail; [9],40
same,"Plant response rating, Foxtail, Giant",giant foxtail; [16],20
same,"Plant response rating (0 to 100), Waterhemp",waterhemp; [6],10
same,Waterhemp plant response rating,waterhemp; [13],25
same,"Plant response rating, Waterhemp",waterhemp; [7],70
same,"Plant response rating, Waterhemp",waterhemp; [14],55
same,"Plant response rating, Corn",corn [3]; [17],30
same,"Plant response rating, Corn",corn [3]; [18],90
same,"Plant response rating (0 to 100), Barnyardgrass",barnyardgrass; [6],0
same,Barnyardgrass plant response rating,barnyardgrass; [15],10
same,"Plant response rating, Barnyardgrass",barnyardgrass; [9],20
same,"Plant response rating, Barnyardgrass","barnyardgrass; Postemergence, 62 g ai/ha",10
same,"Plant response rating (0 to 100), Ryegrass, Italian",Italian ryegrass; [6],0
same,"Ryegrass, Italian plant response rating",Italian ryegrass; [13],0
same,"Plant response rating, Ryegrass, Italian",Italian ryegrass; [7],0
same,"Plant response rating, Ryegrass, Italian",Italian ryegrass; [14],0
same,"Plant response rating (0 to 100), Pigweed",pigweed [4]; [6],15
same,Pigweed plant response rating,pigweed [4]; [13],30
same,"Plant response rating, Pigweed",pigweed [4]; [7],75
same,"Plant response rating, Pigweed",pigweed [4]; [14],45
same,Pigweed plant response rating (0 to 100 scale),pigweed [5]; 125 g ai/ha,100
same,Pigweed plant response rating,pigweed [5]; 0 to 100 scale where 0 is no effect and 100 is complete control,100
Cc1cnc(Oc2cccc(C#N)c2-n2cc(C#N)cn2)nc1 [Compound 90],"Plant response rating (0 to 100), Soybean","soybean; 125 g ai/ha, postemergence",60
same,"Plant response rating, Soybean",soybean; [19],65
same,"Plant response rating, Soybean",soybean; [8],75
same,Kochia plant response rating,kochia; [20],45
same,"Plant response rating (0 to 100), Kochia","kochia; 125 g ai/ha, postemergence",90
same,"Plant response rating, Kochia",kochia; [12],70
same,"Plant response rating, Kochia","kochia; Postemergence, 62 g ai/ha",45
same,Corn plant response rating,corn [1]; [20],0
same,"Plant response rating (0 to 100), Corn","corn [1]; 125 g ai/ha, postemergence",5
same,"Plant response rating, Corn",corn [1]; [12],5
same,"Plant response rating, Corn","corn [1]; Postemergence, 62 g ai/ha",5
same,Johnsongrass plant response rating,johnsongrass; [20],0
same,"Plant response rating (0 to 100), Johnsongrass","johnsongrass; 125 g ai/ha, postemergence",5
same,"Plant response rating, Johnsongrass",johnsongrass; [12],5
same,"Plant response rating, Johnsongrass","johnsongrass; Postemergence, 62 g ai/ha",5
same,"Plant response rating, Pigweed",pigweed [2]; [11],100
same,"Plant response rating, Pigweed",pigweed [2]; [18],100
same,"Plant response rating (0 to 100), Oat, Wild","wild oat; 125 g ai/ha, postemergence",5
same,"Plant response rating, Oat, Wild",wild oat; [19],0
same,"Plant response rating, Oat, Wild",wild oat; [8],5
same,"Foxtail, Giant plant response rating",giant foxtail; [20],35
same,"Plant response rating (0 to 100), Foxtail, Giant","giant foxtail; 125 g ai/ha, postemergence",20
same,"Plant response rating, Foxtail, Giant",giant foxtail; [12],15
same,"Plant response rating, Foxtail, Giant","giant foxtail; Postemergence, 62 g ai/ha",20
same,"Plant response rating (0 to 100), Waterhemp","waterhemp; 125 g ai/ha, postemergence",75
same,"Plant response rating, Waterhemp",waterhemp; [19],35
same,"Plant response rating, Waterhemp",waterhemp; [8],65
same,"Plant response rating, Corn",corn [3]; [11],0
same,"Plant response rating, Corn",corn [3]; [18],80
same,Barnyardgrass plant response rating,barnyardgrass; [20],5
same,"Plant response rating (0 to 100), Barnyardgrass","barnyardgrass; 125 g ai/ha, postemergence",10
same,"Plant response rating, Barnyardgrass",barnyardgrass; [12],5
same,"Plant response rating, Barnyardgrass","barnyardgrass; Postemergence, 62 g ai/ha",5
same,"Plant response rating (0 to 100), Ryegrass, Italian","Italian ryegrass; 125 g ai/ha, postemergence",0
same,"Plant response rating, Ryegrass, Italian",Italian ryegrass; [19],5
same,"Plant response rating, Ryegrass, Italian",Italian ryegrass; [8],5
same,"Plant response rating (0 to 100), Pigweed","pigweed [4]; 125 g ai/ha, postemergence",70
same,"Plant response rating, Pigweed",pigweed [4]; [19],45
same,"Plant response rating, Pigweed",pigweed [4]; [8],45
same,"Plant response rating, Pigweed",pigweed [5]; [11],100
same,Pigweed plant response rating,"pigweed [5]; 0 to 100 scale, 0 no effect, 100 complete control, approx. 10 days",100
